Laboratory results published in publication PMC11626117 (Proceedings of the National Academy of Sciences of the …, 2024).

Biological target: CoaX (Rv3600c) (Mycobacterium tuberculosis, UniProt P9WPA1)
Sequence (P9WPA1 whole entry, looked up): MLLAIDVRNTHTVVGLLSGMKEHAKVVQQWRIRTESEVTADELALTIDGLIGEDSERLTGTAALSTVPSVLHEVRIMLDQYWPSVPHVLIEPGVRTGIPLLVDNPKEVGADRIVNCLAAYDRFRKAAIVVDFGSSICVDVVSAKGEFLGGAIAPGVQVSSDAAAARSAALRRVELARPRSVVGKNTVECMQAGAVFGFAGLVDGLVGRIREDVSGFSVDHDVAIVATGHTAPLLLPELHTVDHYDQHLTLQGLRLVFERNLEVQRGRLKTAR

SMILES | thermal shift
Nc1ncnc2c1ncn2[C@@H]1O[C@H](COP(=O)(O)OP(=O)(O)OP(O)(O)=S)[C@@H](O)[C@H]1O [ATPγS] | increasing concentrations of ATPγS in the presence of pantothenate had the largest effect
CC(C)(CO)[C@@H](O)C(=O)NCCC(=O)O [pantothenate] | Increasing pantothenate concentration had a subtle effect on CoaX thermostability
